Measured values from article PMC8129716 (CPT: Pharmacometrics & Systems Pharmacology, 2021).

Columns and labels:
logP = format: physicochemical; settings: octanol/water
[1] = human ADME study, single radiolabeled dose 320 mg; format: in vivo
CYP2D6 = CYP2D6 (Homo sapiens, UniProt P10635); assay: reversible competitive CYP inhibition; format: in vitro ADME; settings: read-out: Ki CYP2D6; Ki=IC50/2
OATP1B3 = target: T1, OATP1B3 (Homo sapiens, UniProt Q9NPD5); assay: transporter substrate/inhibitor assessment; format: in vitro ADME
T1 sequence (Q9NPD5 1-702): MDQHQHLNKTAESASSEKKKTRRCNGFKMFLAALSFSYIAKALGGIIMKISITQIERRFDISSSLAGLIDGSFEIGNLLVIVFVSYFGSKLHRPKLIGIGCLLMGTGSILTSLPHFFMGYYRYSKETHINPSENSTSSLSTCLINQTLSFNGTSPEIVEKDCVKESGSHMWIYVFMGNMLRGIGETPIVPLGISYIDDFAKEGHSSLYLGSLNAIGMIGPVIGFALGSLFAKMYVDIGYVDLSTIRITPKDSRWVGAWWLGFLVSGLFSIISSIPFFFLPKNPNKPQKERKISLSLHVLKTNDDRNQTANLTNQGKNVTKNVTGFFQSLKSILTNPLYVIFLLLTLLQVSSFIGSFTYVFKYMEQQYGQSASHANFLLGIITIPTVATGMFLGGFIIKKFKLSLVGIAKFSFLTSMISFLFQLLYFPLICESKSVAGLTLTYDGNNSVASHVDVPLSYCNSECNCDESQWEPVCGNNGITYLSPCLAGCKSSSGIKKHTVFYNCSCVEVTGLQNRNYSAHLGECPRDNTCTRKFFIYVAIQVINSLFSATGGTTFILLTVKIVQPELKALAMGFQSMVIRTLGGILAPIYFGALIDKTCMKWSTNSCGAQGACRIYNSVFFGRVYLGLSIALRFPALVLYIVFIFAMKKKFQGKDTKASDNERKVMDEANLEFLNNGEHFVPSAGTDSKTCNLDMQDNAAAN

[2] = fraction of unbound drug in plasma; format: in vitro ADME
CYP3A4 = CYP3A4 induction in human hepatocytes; format: in vitro ADME
[3] = human liver microsome intrinsic clearance; format: in vitro ADME; settings: liver microsomes
OATP1B1 = target: T2, OATP1B1 (Homo sapiens, UniProt Q9Y6L6); assay: transporter substrate/inhibitor assessment; format: in vitro ADME
T2 sequence (Q9Y6L6 1-691): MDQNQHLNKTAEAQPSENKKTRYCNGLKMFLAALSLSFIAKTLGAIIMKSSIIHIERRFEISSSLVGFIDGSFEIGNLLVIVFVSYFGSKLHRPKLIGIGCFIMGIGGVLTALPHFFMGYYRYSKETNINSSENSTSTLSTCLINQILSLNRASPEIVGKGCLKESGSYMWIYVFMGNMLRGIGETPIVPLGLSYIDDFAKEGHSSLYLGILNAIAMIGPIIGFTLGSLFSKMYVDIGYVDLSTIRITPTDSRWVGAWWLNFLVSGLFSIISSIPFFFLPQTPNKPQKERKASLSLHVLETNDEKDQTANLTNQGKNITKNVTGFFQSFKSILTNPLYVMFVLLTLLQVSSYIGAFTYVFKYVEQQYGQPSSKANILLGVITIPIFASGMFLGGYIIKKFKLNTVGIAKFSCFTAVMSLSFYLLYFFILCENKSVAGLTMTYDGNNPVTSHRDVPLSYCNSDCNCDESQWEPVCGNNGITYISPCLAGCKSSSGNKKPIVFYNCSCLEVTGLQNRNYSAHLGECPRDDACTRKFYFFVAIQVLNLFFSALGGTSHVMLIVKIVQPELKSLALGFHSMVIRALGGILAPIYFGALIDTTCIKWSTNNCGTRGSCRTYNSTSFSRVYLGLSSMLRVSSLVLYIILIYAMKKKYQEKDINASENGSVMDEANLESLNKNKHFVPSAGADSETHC

[4] = zanubrutinib PBPK model parameters; parameters: species or system human
[5] = population PK analysis; cited from earlier work
CYP2C19 = CYP2C19 induction in vitro; format: in vitro ADME, human
Caco‐2 = assay: in vitro permeability study; format: in vitro ADME; settings: experimental data adjusted to match Fa~0.7
CYP2B6 = CYP2B6 induction in vitro; format: in vitro ADME, human
[6] = single radiolabeled 320 mg, healthy subjects
[7] = per FDA DDI guidance, from in vitro data

CYP2D6, sequence (P10635 whole entry): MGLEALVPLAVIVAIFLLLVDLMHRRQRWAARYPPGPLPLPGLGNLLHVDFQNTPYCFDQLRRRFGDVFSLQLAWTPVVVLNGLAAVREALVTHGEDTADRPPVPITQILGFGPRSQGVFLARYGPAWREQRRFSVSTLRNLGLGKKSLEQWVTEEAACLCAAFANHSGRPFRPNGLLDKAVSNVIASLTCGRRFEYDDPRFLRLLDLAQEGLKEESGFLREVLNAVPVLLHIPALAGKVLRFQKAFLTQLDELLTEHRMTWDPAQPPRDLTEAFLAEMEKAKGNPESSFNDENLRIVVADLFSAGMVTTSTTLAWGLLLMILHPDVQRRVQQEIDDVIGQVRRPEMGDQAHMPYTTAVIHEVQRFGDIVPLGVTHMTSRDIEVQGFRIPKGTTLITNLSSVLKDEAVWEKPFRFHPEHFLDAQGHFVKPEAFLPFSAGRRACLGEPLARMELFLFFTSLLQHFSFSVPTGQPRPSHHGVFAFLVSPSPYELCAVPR

Compound: C=CC(=O)N1CCC([C@@H]2CCNc3c(C(N)=O)c(-c4ccc(Oc5ccccc5)cc4)nn32)CC1 [zanubrutinib, Zanubrutinib]
- logP (logP): 4.2
- zanubrutinib absorbed ([1]; inferred from unchanged drug in feces): 60–70%
- dose excreted renally as parent drug ([1]; single radiolabeled 320 mg): 0.4 % of the dose
- unchanged zanubrutinib in feces ([1]; single radiolabeled 320 mg): 38 % of the dose
- dose recovered in feces [1, 6]: approximately 87%
- dose recovered in urine [1, 6]: ~8%
- Ki (CYP2D6): 36400 nM
- substrate or inhibitor of OATP1B3 (OATP1B3): not a substrate or inhibitor
- fraction unbound [2]: 0.0582
- increase of CYP3A4 activity (CYP3A4; 3 μM): 6.27 fold
- increase of CYP3A4 activity (CYP3A4; 30 μM): 2.51 fold
- Indmax CYP3A4 (CYP3A4; Emax model on activity data): 6.27 fold
- EC50 (CYP3A4; human, hepatocytes): 470 nM
- R3 (CYP3A induction potential) (CYP3A4; [7]): 0.23
- microsomal CLint [3]: 109 µL/min/mg
- substrate or inhibitor of OATP1B1 (OATP1B1): not a substrate or inhibitor
- Estimated renal contribution [4]: Based on human absorption, metabolism, and excretion study (BGB−3111–105); Estimated renal contribution: 1.6% of total CL
- CL renal ([4]; human, urine, oral, 320 mg): 8.33 mL/min
- AUC lower in patients compared with healthy volunteers [5]: 43.7%
- Cmax lower in patients compared with healthy volunteers [5]: 26.8%
- Peff,man (Caco‐2): 0.9 10^−4 cm/s
- increase of CYP2B6 mRNA levels (CYP2B6; 0.3 μM): 1.6 fold
- increase of CYP2B6 mRNA levels (CYP2B6; 3 μM): 3.6 fold
- increase of CYP2B6 mRNA levels (CYP2B6; 30 μM): 2.6 fold
- Indmax CYP2B6 (CYP2B6; Emax model): 2.21 fold
- EC50 (CYP2B6; human, hepatocytes): 730 nM
- R3 (CYP2B6 induction potential) (CYP2B6; [7]): 0.55
